Experimental data reported in ChEMBL document CHEMBL5620362 (Eur J Med Chem, 2023).

Assays:
[1] = molecular target: T1, Nuclear receptor ROR-gamma (Homo sapiens, UniProt P51449); test: Binding affinity to CM5 chip-immobilized recombinant ROR-gamma LBD (unknown origin) assessed as dissociation constant by SPR analysis
T1 sequence (P51449 whole entry): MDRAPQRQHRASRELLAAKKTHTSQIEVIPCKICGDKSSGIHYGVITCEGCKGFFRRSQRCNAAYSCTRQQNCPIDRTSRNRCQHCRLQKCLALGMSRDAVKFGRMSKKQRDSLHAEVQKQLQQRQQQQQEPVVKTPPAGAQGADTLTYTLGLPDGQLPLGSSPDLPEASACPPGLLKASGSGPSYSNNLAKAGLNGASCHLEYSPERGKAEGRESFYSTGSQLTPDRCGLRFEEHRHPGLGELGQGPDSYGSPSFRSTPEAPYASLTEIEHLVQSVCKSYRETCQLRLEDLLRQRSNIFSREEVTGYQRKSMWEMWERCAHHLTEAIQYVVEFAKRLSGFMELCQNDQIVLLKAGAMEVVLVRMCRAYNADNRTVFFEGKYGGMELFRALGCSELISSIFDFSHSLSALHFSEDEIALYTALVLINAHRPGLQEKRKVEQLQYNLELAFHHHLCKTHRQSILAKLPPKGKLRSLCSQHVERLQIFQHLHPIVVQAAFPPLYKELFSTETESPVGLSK

HPAF-II [2] = test: Antitumor activity against human HPAF-II cells measured after 72 hrs; type: functional, cell-based
HPAF-II [3] = test: Induction of apoptosis in human HPAF-II cells assessed as necrotic cells at 1 uM incubated for 48 hrs by Annexin V-FITC/PI staining based flow cytometry (reference value: 8.09 %); type: functional
NCI-H23 [4] = test: Induction of apoptosis in human NCI-H23 cells assessed as late apoptotic cells at 10 uM incubated for 48 hrs by Annexin V-FITC/PI staining based flow cytometry (reference value: 2.89 %); type: functional
HPAF-II [5] = test: Induction of apoptosis in human HPAF-II cells assessed as early apoptotic cells at 1 uM incubated for 48 hrs by Annexin V-FITC/PI staining based flow cytometry (reference value: 0.90 %); type: functional
HPAF-II [6] = test: Induction of apoptosis in human HPAF-II cells assessed as late apoptotic cells at 1 uM incubated for 48 hrs by Annexin V-FITC/PI staining based flow cytometry (reference value: 1.28 %); type: functional
NCI-H23 [7] = test: Induction of apoptosis in human NCI-H23 cells assessed as viable cells at 10 uM incubated for 48 hrs by Annexin V-FITC/PI staining based flow cytometry (reference value: 92.16 %); type: functional; settings: read-out: Activity
NCI-H23 [8] = test: Induction of apoptosis in human NCI-H23 cells assessed as necrotic cells at 10 uM incubated for 48 hrs by Annexin V-FITC/PI staining based flow cytometry (reference value: 0.78 %); type: functional
NCI-H23 [9] = test: Induction of apoptosis in human NCI-H23 cells assessed as early apoptotic cells at 10 uM incubated for 48 hrs by Annexin V-FITC/PI staining based flow cytometry (reference value: 4.17 %); type: functional
HPAF-II [10] = test: Induction of apoptosis in human HPAF-II cells assessed as viable cells at 1 uM incubated for 48 hrs by Annexin V-FITC/PI staining based flow cytometry (reference value: 89.73 %); type: functional; settings: read-out: Activity

| Compound | Kd [1] | IC50 (HPAF-II [2]) | other results |
| --- | --- | --- | --- |
| C=C(C)[C@@H]1CC[C@]2(C(=O)NCC(C)(C)CN(C)C)CC[C@]3(C)[C@H](CC[C@@H]4[C@@]5(C)CC[C@H](O)C(C)(C)[C@@H]5CC[C@]43C)[C@@H]12 | 2900 nM | 440 nM |  |
| C=C(C)[C@@H]1CC[C@]2(C(=O)NCCCN(C)C)CC[C@]3(C)[C@H](CC[C@@H]4[C@@]5(C)C[C@H](O)C(C)(C)[C@@H]5CC[C@]43C)[C@@H]12 | 3060 nM | 2780 nM |  |
| C=C(C)[C@@H]1CC[C@]2(C(=O)N[C@@H]3CCN(C)C3)CC[C@]3(C)[C@H](CC[C@@H]4[C@@]5(C)CC[C@H](O)C(C)(C)[C@@H]5CC[C@]43C)[C@@H]12 | 670 nM | 380 nM |  |
| C=C(C)[C@@H]1CC[C@]2(C(=O)NC[C@H]3CCCN3C)CC[C@]3(C)[C@H](CC[C@@H]4[C@@]5(C)CC[C@H](O)C(C)(C)[C@@H]5CC[C@]43C)[C@@H]12 | 420 nM | 350 nM |  |
| C=C(C)[C@@H]1CC[C@]2(C(=O)NC[C@H]3CCN(C)C3)CC[C@]3(C)[C@H](CC[C@@H]4[C@@]5(C)CC[C@H](O)C(C)(C)[C@@H]5CC[C@]43C)[C@@H]12 |  | 360 nM |  |
| C=C(C)[C@@H]1CC[C@]2(C(=O)NC[C@@H]3CCN(C)C3)CC[C@]3(C)[C@H](CC[C@@H]4[C@@]5(C)CC[C@H](O)C(C)(C)[C@@H]5CC[C@]43C)[C@@H]12 |  | 320 nM |  |
| CN(C)CCCNC(=O)[C@]12CC[C@@H](C3(C)CC3)[C@@H]1[C@H]1CC[C@@H]3[C@@]4(C)CC[C@H](O)C(C)(C)[C@@H]4CC[C@@]3(C)[C@]1(C)CC2 | 240 nM | 120 nM |  |
| C=C1C[C@]2(C)[C@H]3CC[C@@H]4[C@H]5[C@H](C(=C)C)CC[C@]5(C(=O)NCCCN(C)C)CC[C@@]4(C)[C@]3(C)CC[C@H]2C(C)(C)C1=O | 6390 nM | 760 nM |  |
| C=C(C)[C@@H]1CC[C@]2(C(=O)NCCCN(C)C)CC[C@]3(C)[C@H](CC[C@@H]4[C@@]5(C)CC[C@H](N)C(C)(C)[C@@H]5CC[C@]43C)[C@@H]12 | 4550 nM | 370 nM |  |
| C=C(C)[C@@H]1CC[C@]2(C(=O)NCCNc3ccncc3)CC[C@]3(C)[C@H](CC[C@@H]4[C@@]5(C)CC[C@H](O)C(C)(C)[C@@H]5CC[C@]43C)[C@@H]12 | 590 nM | 310 nM |  |
| C=C(C)[C@@H]1CC[C@]2(C(=O)NCc3cncs3)CC[C@]3(C)[C@H](CC[C@@H]4[C@@]5(C)CC[C@H](O)C(C)(C)[C@@H]5CC[C@]43C)[C@@H]12 | 780 nM | 9300 nM |  |
| C=C(C)[C@@H]1CC[C@]2(C(=O)NCCOCCN(C)C)CC[C@]3(C)[C@H](CC[C@@H]4[C@@]5(C)CC[C@H](O)C(C)(C)[C@@H]5CC[C@]43C)[C@@H]12 | 520 nM | 320 nM |  |
| O=S(=O)(c1ccccc1)N(CC(F)(F)F)c1ccc(C(O)(C(F)(F)F)C(F)(F)F)cc1 [T091317] |  |  | Activity (HPAF-II [3]): 6.3%; Activity (NCI-H23 [4]): 3.82%; Activity (HPAF-II [5]): 8.56%; Activity (HPAF-II [6]): 7.38%; viability at 10 µM (NCI-H23 [7]): 90.2%; Activity (NCI-H23 [8]): 3.3%; Activity (NCI-H23 [9]): 2.68%; viability at 1 µM (HPAF-II [10]): 79.8% |
| C=C(C)[C@@H]1CC[C@]2(C(=O)NC3CCNCC3)CC[C@]3(C)[C@H](CC[C@@H]4[C@@]5(C)CC[C@H](O)C(C)(C)[C@@H]5CC[C@]43C)[C@@H]12 | 1960 nM | 1210 nM |  |
| C=C(C)[C@@H]1CC[C@]2(C(=O)NC[C@@H]3CCCN3C)CC[C@]3(C)[C@H](CC[C@@H]4[C@@]5(C)CC[C@H](O)C(C)(C)[C@@H]5CC[C@]43C)[C@@H]12 | 660 nM | 320 nM |  |
| C=C(C)[C@@H]1CC[C@]2(C(=O)N[C@H]3CCCN(C)C3)CC[C@]3(C)[C@H](CC[C@@H]4[C@@]5(C)CC[C@H](O)C(C)(C)[C@@H]5CC[C@]43C)[C@@H]12 | 960 nM | 350 nM |  |
| C=C(C)[C@@H]1CC[C@]2(C(=O)NCCN(CC)CCO)CC[C@]3(C)[C@H](CC[C@@H]4[C@@]5(C)CC[C@H](O)C(C)(C)[C@@H]5CC[C@]43C)[C@@H]12 | 1110 nM | 220 nM |  |
| C=C(C)[C@@H]1CC[C@]2(C(=O)N[C@H]3CCN(C)C3)CC[C@]3(C)[C@H](CC[C@@H]4[C@@]5(C)CC[C@H](O)C(C)(C)[C@@H]5CC[C@]43C)[C@@H]12 | 1870 nM | 210 nM |  |

Continued, in another order:

| Kd [1] | IC50 (HPAF-II [2]) | Compound | other results |
| --- | --- | --- | --- |
| 120 nM | 130 nM | C=C(C)[C@@H]1CC[C@]2(C(=O)N[C@@H]3CN4CCC3CC4)CC[C@]3(C)[C@H](CC[C@@H]4[C@@]5(C)CC[C@H](O)C(C)(C)[C@@H]5CC[C@]43C)[C@@H]12 |  |
| 870 nM | 230 nM | C=C(C)[C@@H]1CC[C@]2(C(=O)NCCN3CCCC3)CC[C@]3(C)[C@H](CC[C@@H]4[C@@]5(C)CC[C@H](O)C(C)(C)[C@@H]5CC[C@]43C)[C@@H]12 |  |
| 5460 nM | 1960 nM | C=C(C)[C@@H]1CC[C@]2(C(=O)Nc3nccs3)CC[C@]3(C)[C@H](CC[C@@H]4[C@@]5(C)CC[C@H](O)C(C)(C)[C@@H]5CC[C@]43C)[C@@H]12 |  |
| 720 nM | 120 nM | C=C(C)[C@@H]1CC[C@]2(C(=O)NCCN(CC)CC)CC[C@]3(C)[C@H](CC[C@@H]4[C@@]5(C)CC[C@H](O)C(C)(C)[C@@H]5CC[C@]43C)[C@@H]12 |  |
| 250 nM | 110 nM | C=C(C)[C@@H]1CC[C@]2(C(=O)NC3CCCN(C)CC3)CC[C@]3(C)[C@H](CC[C@@H]4[C@@]5(C)CC[C@H](O)C(C)(C)[C@@H]5CC[C@]43C)[C@@H]12 (stereo partly drawn) |  |
| 1880 nM | 380 nM | C=C(C)[C@@H]1CC[C@]2(C(=O)NCCN(C)CCN(C)C)CC[C@]3(C)[C@H](CC[C@@H]4[C@@]5(C)CC[C@H](O)C(C)(C)[C@@H]5CC[C@]43C)[C@@H]12 |  |
| 340 nM | 300 nM | C=C(C)[C@@H]1CC[C@]2(C(=O)N[C@@H]3CCCN(C)C3)CC[C@]3(C)[C@H](CC[C@@H]4[C@@]5(C)CC[C@H](O)C(C)(C)[C@@H]5CC[C@]43C)[C@@H]12 |  |
| 290 nM | 310 nM | C=C(C)[C@@H]1CC[C@]2(C(=O)NCCN3CCC(O)C3)CC[C@]3(C)[C@H](CC[C@@H]4[C@@]5(C)CC[C@H](O)C(C)(C)[C@@H]5CC[C@]43C)[C@@H]12 (stereo partly drawn) |  |
| 780 nM | 7030 nM | C=C(C)[C@@H]1CC[C@]2(C(=O)NCc3cc[nH]n3)CC[C@]3(C)[C@H](CC[C@@H]4[C@@]5(C)CC[C@H](O)C(C)(C)[C@@H]5CC[C@]43C)[C@@H]12 |  |
